According to patent US10000516B2 (priority 2015, dated 2018):

Molecular target: T1, Human Factor D (Homo sapiens, UniProt P00746)
T1 construct: purified from human serum; purchased Complement Technology, Inc; host or cells: human serum (natural protein, not recombinant)
Experiment: Human Factor D assay (Z-L-Lys-SBzl/DTNB, absorbance at 405 nm)
Type: biochemical
Settings: not given
Procedure: Example 44. Human Factor D Assay
Human Factor D (purified from human serum, Complement Technology, Inc.) at 80 nM final concentration was incubated with test compound at various concentrations for 5 minutes at room temperature in 50 mM Tris, 1M NaCl, pH 7.5. A synthetic substrate Z-L-Lys-SBzl and DTNB (Ellman's reagent) are added to final concentrations of 100 µM each. Absorbance at 405 nm (A405) was recorded at 30 second intervals for 30 minutes using a microplate spectrophotometer. IC50 values are calculated by nonlinear regression of complement Factor D reaction rates as a function of test compound concentration.

T1 sequence (P00746 26-253): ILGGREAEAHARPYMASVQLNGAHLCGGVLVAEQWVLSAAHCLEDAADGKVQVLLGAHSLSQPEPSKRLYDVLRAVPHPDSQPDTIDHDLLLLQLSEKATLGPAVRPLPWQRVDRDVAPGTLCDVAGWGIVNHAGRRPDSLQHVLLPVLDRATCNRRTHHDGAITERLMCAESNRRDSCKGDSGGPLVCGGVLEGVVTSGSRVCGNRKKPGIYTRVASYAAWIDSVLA

Compound	IC50 [µM]
O=C(NCc1cccc(Cl)c1F)[C@@H]1C[C@@H](F)CN1C(=O)Cn1cc(C(=O)C(F)(F)F)c2ccc(P(=O)(O)O)cc21 [Compound 32, 1-(2-((2S,4R)-2-(3-chloro-2-fluorobenzylcarbamoyl)-4-fluoropyrrolidin-1-yl)-2-oxoethyl)-3-(2,2,2-trifluoroacetyl)-1H-indol-6-ylphosphonic acid]	< 1

Same assay, conditions: Table 1; Human Factor D 80 nM, purified from human serum; substrate Z-L-Lys-SBzl; read-out: IC50

Compound	IC50 [µM]
CCP(=O)(O)c1ccc2c(C(C)=O)cn(CC(=O)N3C[C@H](F)C[C@H]3C(=O)NCc3cccc(Cl)c3F)c2c1 [Compound 27, 3-acetyl-1-(2-((2S,4R)-2-(3-chloro-2-fluorobenzylcarbamoyl)-4-fluoropyrrolidin-1-yl)-2-oxoethyl)-1H-indol-6-yl(ethyl)phosphinic acid]	< 1
CC(=O)c1cn(CC(=O)N2C[C@H](F)C[C@H]2C(=O)NCc2cccc(Cl)c2F)c2cc(P(=O)(O)OCOC(=O)C(C)(C)C)ccc12 [Compound 28, ((3-acetyl-1-(2-((2S,4R)-2-(3-chloro-2-fluorobenzylcarbamoyl)-4-fluoropyrrolidin-1-yl)-2-oxoethyl)-1H-indol-6-yl)(hydroxy)phosphoryloxy) methyl pivalate]	< 1
CC(=O)c1cn(CC(=O)N2C[C@H](F)C[C@H]2C(=O)NCc2cccc(Cl)c2F)c2cc(P(=O)(O)OCC(F)(F)F)ccc12 [Compound 29, 2,2,2-trifluoroethyl hydrogen 3-acetyl-1-(2-((2S,4R)-2-(3-chloro-2-fluorobenzylcarbamoyl)-4-fluoropyrrolidin-1-yl)-2-oxoethyl)-1H-indol-6-ylphosphonate]	< 1
CCOP(=O)(OCC)c1cc2c(cc1F)c(C(C)=O)cn2CC(=O)N1C[C@H](F)C[C@H]1C(=O)NCc1cccc(Cl)c1F [Compound 30, diethyl 3-acetyl-1-(2-((2S,4R)-2-(3-chloro-2-fluorobenzylcarbamoyl)-4-fluoropyrrolidin-1-yl)-2-oxoethyl)-5-fluoro-1H-indol-6-ylphosphonate]	< 1
CC(=O)c1cn(CC(=O)N2C[C@H](F)C[C@H]2C(=O)NCc2cccc(Cl)c2F)c2cc(P(=O)(O)O)c(F)cc12 [Compound 31, 3-acetyl-1-(2-((2S,4R)-2-(3-chloro-2-fluorobenzylcarbamoyl)-4-fluoropyrrolidin-1-yl)-2-oxoethyl)-5-fluoro-1H-indol-6-ylphosphonic acid]	< 1

Same assay, conditions: Table 3; Human Factor D 80 nM, purified from human serum; substrate Z-L-Lys-SBzl; read-out: IC50 (Stars)

Compound	IC50 [µM]
CCOP(=O)(OCC)c1ccc2c(c1)c(C(C)=O)cn2CC(=O)N1C[C@H](F)C[C@H]1C(=O)NCCc1ccccc1 [Compound 78, diethyl (3-acetyl-1-(2-((2S,4R)-4-fluoro-2-(phenethylcarbamoyl)pyrrolidin-1-yl)-2-oxoethyl)-1H-indol-5-yl)phosphonate]	> 10
CC(=O)c1cn(CC(=O)N2C[C@H](F)C[C@H]2C(=O)NCCc2ccccc2)c2ccc(P(=O)(O)O)cc12 [Compound 79, (3-acetyl-1-(2-((2S,4R)-4-fluoro-2-(phenethylcarbamoyl)pyrrolidin-1-yl)-2-oxoethyl)-1H-indol-5-yl)phosphonic acid]	> 10
CCOP(=O)(OCC)c1ccc2c(c1)c(C(C)=O)cn2CC(=O)N1C[C@H](F)C[C@H]1C(=O)NCCCc1ccccc1 [Compound 82, diethyl (3-acetyl-1-(2-((2S,4R)-4-fluoro-2-((3-phenylpropyl)carbamoyl)pyrrolidin-1-yl)-2-oxoethyl)-1H-indol-5-yl)phosphonate]	> 10
CC(=O)c1cn(CC(=O)N2C[C@H](F)C[C@H]2C(=O)NCCCc2ccccc2)c2ccc(P(=O)(O)O)cc12 [Compound 83, (3-acetyl-1-(2-((2S,4R)-4-fluoro-2-((3-phenylpropyl)carbamoyl)pyrrolidin-1-yl)-2-oxoethyl)-1H-indol-5-yl)phosphonic acid]	> 10
CCOP(=O)(OCC)c1ccc2c(c1)c(C(C)=O)cn2CC(=O)N1C[C@H](F)C[C@H]1C(=O)NCCCCc1ccccc1 [Compound 86, diethyl (3-acetyl-1-(2-((2S,4R)-4-fluoro-2-((4-phenylbutyl)carbamoyl)pyrrolidin-1-yl)-2-oxoethyl)-1H-indol-5-yl)phosphonate]	> 10
CC(=O)c1cn(CC(=O)N2C[C@H](F)C[C@H]2C(=O)NCCCCc2ccccc2)c2ccc(P(=O)(O)O)cc12 [Compound 87, (3-acetyl-1-(2-((2S,4R)-4-fluoro-2-((4-phenylbutyl)carbamoyl)pyrrolidin-1-yl)-2-oxoethyl)-1H-indol-5-yl)phosphonic acid]	> 10
CCOP(=O)(OCC)c1ccc2c(c1)c(C(C)=O)cn2CC(=O)N1C[C@H](F)C[C@H]1CCNS(=O)(=O)c1ccccc1 [Compound 95, diethyl (3-acetyl-1-(2-((2R,4R)-4-fluoro-2-(2-(phenylsulfonamido)ethyl)pyrrolidin-1-yl)-2-oxoethyl)-1H-indol-5-yl)phosphonate]	> 10
CC(=O)c1cn(CC(=O)N2C[C@H](F)C[C@H]2CCNS(=O)(=O)c2ccccc2)c2ccc(P(=O)(O)O)cc12 [Compound 96, (3-acetyl-1-(2-((2R,4R)-4-fIuoro-2-(2-(phenylsulfonamido)ethyl)pyrrolidin-1-yl)-2-oxoethyl)-1H-indol-5-yl)phosphonic acid]	> 10
CCOP(=O)(OCC)c1ccc2c(c1)c(C(C)=O)cn2CC(=O)N1CC[C@H]1C(=O)Nc1cccc(C)n1 [Compound 100, (S)-diethyl (3-acetyl-1-(2-(2-((6-methylpyridin-2-yl)carbamoyl)azetidin-1-yl)-2-oxoethyl)-1H-indol-5-yl)phosphonate]	> 10
CC(=O)c1cn(CC(=O)N2CC[C@H]2C(=O)Nc2cccc(C)n2)c2ccc(P(=O)(O)O)cc12 [Compound 101, (S)-(3-acetyl-1-(2-(2-((6-methylpyridin-2-yl)carbamoyl)azetidin-1-yl)-2-oxoethyl)-1H-indol-5-yl)phosphonic acid]	> 10
CCOP(=O)(OCC)c1ccc2c(c1)c(C(N)=O)cn2CC(=O)N1[C@@H]2CC[C@@H](C2)[C@H]1C(=O)Nc1cccc(C)n1 [Compound 102, diethyl (3-carbamoyl-1-(2-((1R,3S,4S)-3-((6-methylpyridin-2-yl)carbamoyl)-2-azabicyclo[2.2.1]heptan-2-yl)-2-oxoethyl)-1H-indol-5-yl)phosphonate]	> 10
Cc1cccc(NC(=O)[C@@H]2[C@H]3CC[C@H](C3)N2C(=O)Cn2cc(C(N)=O)c3cc(P(=O)(O)O)ccc32)n1 [Compound 103, (3-carbamoyl-1-(2-((1R,3S,4S)-3-((6-methylpyridin-2-yl)carbamoyl)-2-azabicyclo[2.2.1]heptan-2-yl)-2-oxoethyl)-1H-indol-5-yl)phosphonic acid]	> 10
CCOP(=O)(OCC)c1nc2c(s1)c(C(N)=O)nn2CC(=O)N1[C@@H]2C[C@@H]2C[C@H]1C(=O)Nc1cccc(-c2cc(C(C)=O)ccc2Cl)c1F [Compound 104, diethyl (1-(2-((1R,3S,5R)-3-((5′-acetyl-2′-chloro-2-fIuoro-[1,1′-biphenyl]-3-yl)carbamoyl)-2-azabicyclo[3.1.0]hexan-2-yl)-2-oxoethyl)-3-carbamoyl-1H-pyrazolo[3,4-d]thiazol-5-yl)phosphonate]	< 1
CC(=O)c1nn(CC(=O)N2C[C@H](F)C[C@H]2C(=O)Nc2cccc(Br)n2)c2cc(P(=O)(O)O)ccc12 [Compound 105, (3-acetyl-1-(2-((2S,4R)-2-((6-bromopyridin-2-yl)carbamoyl)-4-fluoropyrrolidin-1-yl)-2-oxoethyl)-1H-indazol-6-yl)phosphonic acid]	< 1
CC(=O)c1nn(CC(=O)N2[C@H](C(=O)Nc3cccc(Br)n3)C[C@@]3(C)C[C@@H]23)c2cc(P(=O)(O)O)ccc12 [Compound 106, (3-acetyl-1-(2-((1R,3S,5R)-3-((6-bromopyridin-2-yl)carbamoyl)-5-methyl-2-azabicyclo[3.1.0]hexan-2-yl)-2-oxoethyl)-1H-indazol-6-yl) phosphonic acid]	< 1
CCOP(=O)(OCC)c1nc2c(s1)c(C(N)=O)nn2CC(=O)N1C[C@H](F)C[C@H]1C(=O)Nc1cccc(C)n1 [Compound 146]	> 10
CCOP(=O)(OCC)c1nc2c(s1)c(C(N)=O)nn2CC(=O)N1C[C@H](F)C[C@H]1C(=S)NC1CCC(c2cc3sccc3s2)C1 (some centres unmarked) [Compound 148]	> 10
